Measurements from PubChem BioAssay AID192 (DTP/NCI, 2004).
Values joined by “and” are separate entries in the source; they are usually repeats but may differ in a detail not shown here. Identical values can stand only once. Inconclusive results and toxic doses are left out.

Tested on: BDF1 mice, B16 melanoma ip, median survival T/C
Assay: NCI In Vivo Anticancer Drug Screen. Data for tumor model B16 Melanoma (intraperitoneal) in B6D2F1 (BDF1) mice
Conditions: endpoint: median survival time, higher = longer survival
How it was run: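 Vehicle-treated animals serve as the reference (C); treated animals (T) are scored for survival or tumor size after tumor transplantation.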

[1] = dose: 3.13 mg/kg/injection, schedule: Q01DX009 (ip), vehicle: Klucel (hydroxypropylcellulose) (HPC)
[2] = dose: 6.25 mg/kg/injection, schedule: Q01DX009 (ip), vehicle: saline
[3] = dose: 12.5 mg/kg/injection, schedule: Q01DX009 (ip), vehicle: saline
[4] = dose: 25.0 mg/kg/injection, schedule: Q01DX009 (ip), vehicle: saline
[5] = dose: 50.0 mg/kg/injection, schedule: Q01DX009 (ip), vehicle: saline
[6] = dose: 100.0 mg/kg/injection, schedule: Q01DX009 (ip), vehicle: saline
[7] = dose: 12.5 mg/kg/injection, schedule: Q01DX009 (ip), vehicle: Klucel (hydroxypropylcellulose) (HPC)
[8] = dose: 25.0 mg/kg/injection, schedule: Q01DX009 (ip), vehicle: Klucel (hydroxypropylcellulose) (HPC)
[9] = dose: 1.25 mg/kg/injection, schedule: Q01DX009 (ip), vehicle: Klucel (hydroxypropylcellulose) (HPC)
[10] = dose: 2.5 mg/kg/injection, schedule: Q01DX009 (ip), vehicle: Klucel (hydroxypropylcellulose) (HPC)
[11] = dose: 5.0 mg/kg/injection, schedule: Q01DX009 (ip), vehicle: Klucel (hydroxypropylcellulose) (HPC)
[12] = dose: 10.0 mg/kg/injection, schedule: Q01DX009 (ip), vehicle: Klucel (hydroxypropylcellulose) (HPC)
[13] = dose: 6.25 mg/kg/injection, schedule: Q01DX009 (ip), vehicle: saline with Tween-80
[14] = dose: 12.5 mg/kg/injection, schedule: Q01DX009 (ip), vehicle: saline with Tween-80
[15] = dose: 25.0 mg/kg/injection, schedule: Q01DX009 (ip), vehicle: saline with Tween-80
[16] = dose: 50.0 mg/kg/injection, schedule: Q01DX009 (ip), vehicle: saline with Tween-80
[17] = dose: 100.0 mg/kg/injection, schedule: Q01DX009 (ip), vehicle: saline with Tween-80
[18] = dose: 25.0 mg/kg/injection, schedule: Q04DX003 (ip), vehicle: saline with Tween-80
[19] = dose: 100.0 mg/kg/injection, schedule: Q01DX009 (ip), vehicle: Klucel (hydroxypropylcellulose) (HPC)
[20] = dose: 200.0 mg/kg/injection, schedule: Q01DX009 (ip), vehicle: Klucel (hydroxypropylcellulose) (HPC)
[21] = dose: 400.0 mg/kg/injection, schedule: Q01DX009 (ip), vehicle: Klucel (hydroxypropylcellulose) (HPC)

SMILES: CC[C@@]1(O)C[C@H](OC2CC(N(C)C)C(OC3CC(O)C(OC4CCC(=O)C(C)O4)C(C)O3)C(C)O2)c2c(cc3c(c2O)C(=O)c2c(O)ccc(O)c2C3=O)[C@H]1C(=O)OC (stereo partly drawn)
- T/C (dose: 0.25 mg/kg/injection, schedule: Q01DX009 (ip), vehicle: saline): 119 % of control
- T/C (dose: 0.25 mg/kg/injection, schedule: Q01DX009 (ip), vehicle: water): 110 % of control
- T/C (dose: 0.37 mg/kg/injection, schedule: Q01DX009 (ip), vehicle: saline): 102 % of control
- T/C (dose: 0.5 mg/kg/injection, schedule: Q01DX009 (ip), vehicle: saline): 114 % of control
- T/C (dose: 0.5 mg/kg/injection, schedule: Q01DX009 (ip), vehicle: water): 120 % of control
- T/C (dose: 0.75 mg/kg/injection, schedule: Q01DX009 (ip), vehicle: saline): 113 % of control
- T/C (dose: 0.75 mg/kg/injection, schedule: Q04DX003 (ip), vehicle: saline): 91 % of control
- T/C (dose: 1.0 mg/kg/injection, schedule: Q01DX009 (ip), vehicle: saline): 157 % of control and 168 % of control
- T/C (dose: 1.5 mg/kg/injection, schedule: Q01DX009 (ip), vehicle: saline): 150 % of control
- T/C (dose: 1.5 mg/kg/injection, schedule: Q04DX003 (ip), vehicle: saline): 91 % of control and 106 % of control
- T/C (dose: 2.0 mg/kg/injection, schedule: Q01DX009 (ip), vehicle: saline): 107 % of control
- T/C (dose: 3.0 mg/kg/injection, schedule: Q04DX003 (ip), vehicle: saline): 108 % of control and 115 % of control
- T/C (dose: 3.6 mg/kg/injection, schedule: Q01DX001 (ip), vehicle: water): 100 % of control and 102 % of control
- T/C (dose: 6.0 mg/kg/injection, schedule: Q01DX001 (ip), vehicle: water): 92 % of control and 102 % of control
- T/C (dose: 6.0 mg/kg/injection, schedule: Q04DX003 (ip), vehicle: saline): 88 % of control and 97 % of control
- T/C (dose: 10.0 mg/kg/injection, schedule: Q01DX001 (ip), vehicle: water): 101 % of control and 102 % of control
- T/C (dose: 16.7 mg/kg/injection, schedule: Q01DX001 (ip), vehicle: water): 106 % of control

SMILES: CC(=N\O)/C(C)=N/O.CC(=N\O)/C(C)=N/O.CC(=N\O)/C(C)=N/O.CC(=N\O)/C(C)=N/O.[Cu].[Cu]
- T/C (dose: 0.78 mg/kg/injection, schedule: Q01DX009 (ip), vehicle: Klucel (hydroxypropylcellulose) (HPC)): 93 % of control
- T/C (dose: 1.56 mg/kg/injection, schedule: Q01DX009 (ip), vehicle: Klucel (hydroxypropylcellulose) (HPC)): 103 % of control
- T/C [1]: 103 % of control

SMILES: CC(N)Cc1cn(C)c2ccccc12 (stereo not drawn)
- T/C [2]: 122 % of control
- T/C [3]: 105 % of control
- T/C [4]: 102 % of control
- T/C [5]: 105 % of control
- T/C [6]: 88 % of control

SMILES: O=C(O)CC[S-].[Ag+]
- T/C [4]: 99 % of control
- T/C [5]: 111 % of control
- T/C [6]: 97 % of control

SMILES: BrCCC[P+](c1ccccc1)(c1ccccc1)c1ccccc1
- T/C [1]: 106 % of control
- T/C (dose: 3.13 mg/kg/injection, schedule: Q01DX009 (ip), vehicle: saline): 105 % of control
- T/C (dose: 3.13 mg/kg/injection, schedule: Q04DX003 (ip), vehicle: saline): 89 % of control
- T/C (dose: 6.25 mg/kg/injection, schedule: Q01DX009 (ip), vehicle: Klucel (hydroxypropylcellulose) (HPC)): 103 % of control
- T/C [2]: 100 % of control
- T/C (dose: 6.25 mg/kg/injection, schedule: Q04DX003 (ip), vehicle: saline): 89 % of control
- T/C [7]: 106 % of control
- T/C [3]: 107 % of control
- T/C (dose: 12.5 mg/kg/injection, schedule: Q04DX003 (ip), vehicle: saline): 89 % of control
- T/C [8]: 90 % of control
- T/C (dose: 25.0 mg/kg/injection, schedule: Q04DX003 (ip), vehicle: Klucel (hydroxypropylcellulose) (HPC)): 90 % of control

SMILES: CC1(C)CC[C@H](C2=CC(=O)c3c(O)ccc(O)c3C2=O)O1
- T/C [9]: 99 % of control
- T/C [10]: 97 % of control
- T/C [11]: 97 % of control
- T/C [12]: 92 % of control
- T/C (dose: 20.0 mg/kg/injection, schedule: Q01DX009 (ip), vehicle: Klucel (hydroxypropylcellulose) (HPC)): 93 % of control

SMILES: O=c1[nH]cnc2ccc(Cl)cc12
- T/C (dose: 37.5 mg/kg/injection, schedule: Q01DX009 (ip), vehicle: saline with Tween-80): 102 % of control
- T/C (dose: 75.0 mg/kg/injection, schedule: Q01DX009 (ip), vehicle: saline with Tween-80): 102 % of control

SMILES: O=C(O)CCCC1CCCCC1.[Cu+2]
- T/C [13]: 100 % of control
- T/C [14]: 97 % of control

SMILES: [O-][n+]1c(CCl)nc2cccc3c2c1-c1ccccc1-3
- T/C [15]: 101 % of control
- T/C [16]: 96 % of control
- T/C [17]: 90 % of control

SMILES: CCCCN1CCNCC1
- T/C [4]: 103 % of control
- T/C [5]: 103 % of control
- T/C [6]: 101 % of control

SMILES: COc1ccc(N=C=S)cc1N=C=S
- T/C [13]: 102 % of control
- T/C (dose: 6.25 mg/kg/injection, schedule: Q04DX003 (ip), vehicle: saline with Tween-80): 105 % of control
- T/C [14]: 92 % of control
- T/C (dose: 12.5 mg/kg/injection, schedule: Q04DX003 (ip), vehicle: saline with Tween-80): 115 % of control
- T/C [15]: 100 % of control
- T/C [18]: 113 % of control

SMILES: Cc1cc(C)c(-c2cc(O)c(C)cc2O)c(C)c1
- T/C [7]: 95 % of control
- T/C [8]: 97 % of control
- T/C (dose: 50.0 mg/kg/injection, schedule: Q01DX009 (ip), vehicle: Klucel (hydroxypropylcellulose) (HPC)): 97 % of control
- T/C [19]: 93 % of control
- T/C [20]: 90 % of control

SMILES: O=C(O)C1C2CCC1C2 (stereo not drawn)
- T/C [18]: 103 % of control
- T/C (dose: 50.0 mg/kg/injection, schedule: Q04DX003 (ip), vehicle: saline with Tween-80): 102 % of control
- T/C (dose: 100.0 mg/kg/injection, schedule: Q04DX003 (ip), vehicle: saline with Tween-80): 97 % of control and 102 % of control

SMILES: NNC(=O)c1cccc(C(=O)NN)c1
- T/C [17]: 97 % of control
- T/C (dose: 200.0 mg/kg/injection, schedule: Q01DX009 (ip), vehicle: saline with Tween-80): 100 % of control
- T/C (dose: 400.0 mg/kg/injection, schedule: Q01DX009 (ip), vehicle: saline with Tween-80): 97 % of control

SMILES: O=[N+]([O-])c1cccc2c(S(=O)(=O)O)cccc12
- T/C [5]: 113 % of control
- T/C [6]: 110 % of control
- T/C (dose: 200.0 mg/kg/injection, schedule: Q01DX009 (ip), vehicle: saline): 91 % of control

SMILES: Nc1ncnc2c1ncn2C1OCC(O)C1O (stereo not drawn)
- T/C [3]: 101 % of control
- T/C [4]: 108 % of control
- T/C [5]: 116 % of control

SMILES: Cc1ccc(C)n1-c1ccccc1C(=O)O
- T/C [19]: 106 % of control
- T/C [20]: 96 % of control
- T/C [21]: 90 % of control

SMILES: Cc1cc[n+](C)c2ccccc12
- T/C (dose: 9.37 mg/kg/injection, schedule: Q01DX009 (ip), vehicle: saline): 95 % of control
- T/C (dose: 18.75 mg/kg/injection, schedule: Q01DX009 (ip), vehicle: saline): 92 % of control
- T/C (dose: 37.5 mg/kg/injection, schedule: Q01DX009 (ip), vehicle: saline): 97 % of control

SMILES: COc1ccc(OC)c(C2N(Cc3ccccc3N(C)C)CCCN2Cc2ccccc2N(C)C)c1
- T/C [15]: 102 % of control
- T/C [16]: 93 % of control
- T/C [17]: 90 % of control

SMILES: CCCCCCCC(=O)O[C@H]1[C@H]2[C@@H](CC1(C)C)C(=O)[C@]13O[C@H]1C(=O)[C@]1(CO1)[C@]23C
- T/C (dose: 0.31 mg/kg/injection, schedule: Q01DX009 (ip), vehicle: Klucel (hydroxypropylcellulose) (HPC)): 98 % of control
- T/C (dose: 0.63 mg/kg/injection, schedule: Q01DX009 (ip), vehicle: Klucel (hydroxypropylcellulose) (HPC)): 102 % of control
- T/C (dose: 0.63 mg/kg/injection, schedule: Q01DX009 (ip), vehicle: saline with Tween-80): 92 % of control
- T/C [9]: 100 % of control
- T/C (dose: 1.25 mg/kg/injection, schedule: Q01DX009 (ip), vehicle: saline with Tween-80): 89 % of control
- T/C [10]: 98 % of control
- T/C (dose: 2.5 mg/kg/injection, schedule: Q01DX009 (ip), vehicle: saline with Tween-80): 92 % of control
- T/C [11]: 90 % of control
- T/C [12]: 86 % of control

SMILES: CCOC(=O)/C=C(\C)Nc1ccc(F)cc1
- T/C [19]: 88 % of control
- T/C [20]: 97 % of control
- T/C [21]: 91 % of control
